Data published in patent US10280198B2, “Therapeutic agents for reducing parathyroid hormone levels” (KAI PHARMACEUTICALS, INC., priority 2009, dated 2019).
Counter-ions that a name gives are not always drawn. Like-named read-outs stand apart in the source and are kept apart here. Square brackets hold non-standard residues; d marks the D form. Peptide text beside a SMILES is read from it.

Experiments:
plasma PTH [1] = experiment: In vivo PTH lowering after IV bolus in isoflurane-anesthetized normal Sprague Dawley rats; parameters: species or system rat; conditions: Table 2; for % PTH reduction of baseline at 1 hour post IV administration of 0.5 mg/kg compound: isoflurane-anesthetized normal rats, 0.5 mg/kg IV; for 0.5 mg/kg IV bolus % PTH AUC of saline control: normal rats, AUC 1-4 h
In short: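 Peptides were given as a 0.5 mg/kg IV bolus to normal Sprague Dawley rats kept under isoflurane throughout, with saline bolus controls.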

[2] = system: rat peritoneal mast cells; experiment: In vitro histamine induction in rat peritoneal mast cells; type: cell-based
In short: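 Mast cells from peritoneal lavage of Sprague Dawley rats were incubated with compound at 10 μM for 15 min at 37 °C in HBSS + 25 mM HEPES pH 7.4. Supernatant histamine measured by EIA; response expressed as fold change versus pre-incubation levels.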

plasma histamine [3] = conditions: rat
Experimental: For the in vivo evaluation of histamine release, compounds were dosed in isoflurane-anesthetized normal rats at 2 mg/kg by IV bolus (administered over less than one minute). Plasma histamine was measured 5 minutes after compound administration (Cayman histamine EIA #589651).

[4] = target: T1, human calcium-sensing receptor (CaSR) (Homo sapiens, UniProt P41180); experiment: In vitro cell assay in HEK-293 expressing the human calcium-sensing receptor (IP1 production); type: cell-based; conditions: for potency to activate the human CaSR in vitro: HEK-293 cell assay; for EC50: Table 5, IP1 production in HEK293 cells expressing human CaSR, eight concentrations in duplicate, read-out: EC50 in CaSR in vitro assay
T1 construct: expressed in transfected cells; host or cells: HEK 293T cells, transiently transfected (lipofectamine 2000); in some cases HEK293 cells stably transfected
T1 sequence (P41180 20-1078): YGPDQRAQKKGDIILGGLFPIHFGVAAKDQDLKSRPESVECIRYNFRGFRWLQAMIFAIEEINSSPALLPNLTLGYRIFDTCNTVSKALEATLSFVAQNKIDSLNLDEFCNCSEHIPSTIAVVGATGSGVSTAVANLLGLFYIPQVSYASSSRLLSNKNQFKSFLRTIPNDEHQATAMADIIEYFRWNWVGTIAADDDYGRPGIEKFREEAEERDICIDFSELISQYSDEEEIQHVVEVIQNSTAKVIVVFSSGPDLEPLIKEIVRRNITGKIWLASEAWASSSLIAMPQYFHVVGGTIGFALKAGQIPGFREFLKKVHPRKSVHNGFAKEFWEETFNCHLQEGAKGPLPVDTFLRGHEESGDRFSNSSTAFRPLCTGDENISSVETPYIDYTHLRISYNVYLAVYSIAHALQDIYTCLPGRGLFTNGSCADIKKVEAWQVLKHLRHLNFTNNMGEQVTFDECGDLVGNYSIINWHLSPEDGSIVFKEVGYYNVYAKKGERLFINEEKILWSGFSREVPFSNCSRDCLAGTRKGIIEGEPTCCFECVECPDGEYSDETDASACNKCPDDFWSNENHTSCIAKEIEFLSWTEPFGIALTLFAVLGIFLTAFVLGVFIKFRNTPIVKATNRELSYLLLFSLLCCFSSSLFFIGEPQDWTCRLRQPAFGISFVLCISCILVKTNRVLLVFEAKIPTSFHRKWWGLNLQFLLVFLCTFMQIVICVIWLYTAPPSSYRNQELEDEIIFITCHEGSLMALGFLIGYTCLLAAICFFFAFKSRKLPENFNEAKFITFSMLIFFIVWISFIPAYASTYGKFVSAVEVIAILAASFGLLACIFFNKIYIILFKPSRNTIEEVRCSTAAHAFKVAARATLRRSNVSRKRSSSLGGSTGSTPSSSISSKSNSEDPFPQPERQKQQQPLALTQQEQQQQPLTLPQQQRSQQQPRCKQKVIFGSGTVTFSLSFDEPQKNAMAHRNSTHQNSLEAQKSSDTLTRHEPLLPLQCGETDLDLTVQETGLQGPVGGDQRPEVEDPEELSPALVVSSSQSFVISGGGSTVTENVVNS
In short: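 HEK293 cells transfected with human CaSR exposed to peptides at eight concentrations in duplicate (top 1 mM or 300 μM, ½-log dilutions) at 37 °C for 1.5 h.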

plasma histamine [5] = experiment: In vivo histamine release after IV bolus in normal Sprague Dawley rats (Example 6, FIG. 3 and 4)
plasma PTH [6] = experiment: 1K1C rat model of acute renal insufficiency, plasma PTH after dosing; type: in vivo; conditions: 1K1C rats, oral 30 mg/kg
plasma PTH [7] = experiment: as above; type: in vivo; conditions: 1K1C rats, 3 mg/kg 30-minute IV infusion, FIG. 1
Text: A rat model of acute renal insufficiency (also referred to as the 1K1C model) was developed to simulate the pathology of SHPT associated with end stage renal disease. […] The development of this model allowed for the further characterization of described compounds in the context of a subject with renal dysfunction and elevated PTH. Typical baseline PTH levels in this model averaged ˜450 pg/mL.
The ensuing ischemia/reperfusion (I/R) damage to the remaining kidney results in significant necrosis and renal failure. Serum creatinine levels were elevated for over 24-48 hours following I/R insult (data not shown). […] By 48 hours post-I/R, plasma PTH levels were elevated to ˜450 pg/mL (˜5 fold increase) and in some instances reach as high as ˜1200 pg/mL. This reproducible increase in serum creatinine and PTH provided a robust model that mimics the physiology seen ESRD patients.
The protocol used in this study is as follows. Male Sprague Dawley rats were purchased from Charles River Laboratories (Hollister, Calif.; requested purchase weight 250-275 g). […] Animals were maintained in a temperature-controlled environment with a constant 12 hours light/12 hours dark cycle and free access to food and water at all times. All experimental procedures with animals were performed according to IACUC guidelines.
General anesthesia was induced and maintained by intraperitoneal (IP) injection of sodium pentobarbital (5.2%, 0.4 mL/rat). For animals that received 45 minutes of renal ischemia an additional IP injection of sodium pentobarbital (5.2%, 0.1 mL/rat) was given to maintain the anesthetic plane. Blood sampling for PTH measurements following administration of compounds in normal rats was done under continuous isoflurane anesthesia.
For model development studies, the left femoral vein was cannulated with a PE-10 tube for blood drawing. Both kidneys were exposed via a laparotomy. A right nephrectomy was performed after the right renal pedicle and ureter were ligated with double 2-0 silk sutures. After confirmation of non-bleeding in the right pedicle, the left renal artery was carefully dissected and clamped with a micro vascular clip to induce left renal global ischemia. Renal ischemia was confirmed by observation of a global white-grey color change (blanching). The abdominal incision was temporarily covered with gauze to help maintain the temperature of the abdominal organs. After 45 minutes, the designated period of ischemia, the clip was removed and left renal artery flow was considered restored upon observation of a global restoration of red color. The abdominal incision was closed in layers with 2-0 silk sutures. The animal was then recovered from anesthesia. Physiological parameters including body temperature (36-37.5° C.) and body weight were measured throughout the procedure. Body temperature was monitored and maintained using a heat pad rectal probe feedback system.
Approximately 48 hours after the 1K1C surgery (I/R injury), animals were dosed with various compounds to measure effects on plasma PTH and calcium. In most cases, test articles were administered by IV infusion (infusion time 5, 10 or 30 minutes) although in some studies compounds were administered by IV bolus or subcutaneous (SC) bolus injection. For drug administration and blood draws, animals were anesthetized with isoflurane.

plasma histamine [8] = conditions: rat, in vivo, iv

| Compound | % PTH reduction of baseline at 1 hour post IV administration of 0.5 mg/kg compound (plasma PTH [1]) [%] | 0.5 mg/kg IV bolus % PTH AUC of saline control (plasma PTH [1]) [%] | Histamine in vitro Fold change of non-treated at 10 uM [2] [fold] | Histamine response in vivo Fold change from pre-dose levels 5′ post injection 2 mg/kg IV bolus (plasma histamine [3]) [fold] | EC50 [4] [nM] | also measured |
| --- | --- | --- | --- | --- | --- | --- |
| CC(=O)N[C@H](CS)C(=O)N[C@H](CCCNC(=N)N)C(=O)N[C@H](C)C(=O)N[C@H](CCCNC(=N)N)C(=O)N[C@H](CCCNC(=N)N)C(=O)N[C@H](CCCNC(=N)N)C(=O)N[C@H](C)C(N)=O [SEQ ID NO: 20, Ac-crarrra-NH2] (Ac-[dC][dR][dA][dR][dR][dR][dA]-NH2) | 45 | 69 | 1.1 | 1.0 |  |  |
| CC(=O)N[C@H](CS)C(=O)N[C@H](CCCNC(=N)N)C(=O)N[C@H](CCCNC(=N)N)C(=O)N[C@H](CCCNC(=N)N)C(=O)N[C@H](CCCNC(=N)N)C(=O)N[C@H](CCCNC(=N)N)C(=O)N[C@H](CCCNC(=N)N)C(=O)N[C@H](CCCNC(=N)N)C(=O)N[C@H](CCCNC(=N)N)C(N)=O [SEQ ID NO: 41, Ac-crrrrrrrr-NH2] |  |  |  |  | 300 | potency to activate the human CaSR in vitro [4]: more potent at activating the CaSR; histamine fold over baseline (plasma histamine [5]; equimolar IV bolus 2.1 μmol/kg, normal rats, 5 minutes after dosing, FIG. 3): 6-9 fold; histamine response after IV bolus (plasma histamine [5]; rats, IV bolus): largest induction of histamine |
| CC(=O)N[C@H](CS)C(=O)N[C@H](CCCNC(=N)N)C(=O)N[C@H](C)C(=O)N[C@H](CCCNC(=N)N)C(=O)N[C@H](CCCNC(=N)N)C(=O)N[C@H](C)C(=O)N[C@H](CCCNC(=N)N)C(N)=O [SEQ ID NO: 23, Ac-crarrar-NH2] (Ac-[dC][dR][dA][dR][dR][dA][dR]-NH2) | 0 | 43 | 1.5 | 0.8 |  |  |
| CC(=O)N[C@H](CSSC[C@H](N)C(=O)O)C(=O)N[C@H](C)C(=O)N[C@H](CCCNC(=N)N)C(=O)N[C@H](CCCNC(=N)N)C(=O)N[C@H](CCCNC(=N)N)C(=O)N[C@H](C)C(=O)N[C@H](CCCNC(=N)N)C(N)=O [SEQ ID NO: 3, Ac-c(C)arrrar-NH2] |  |  | 0.6 | 0.9 |  | fold increase in histamine level relative to pre-dose (plasma histamine [5]; 3 mg/kg IV bolus, isoflurane-anesthetized Sprague Dawley rats, FIG. 4): no apparent histamine response |
| C[C@@H](NCCCc1cccc(C(F)(F)F)c1)c1cccc2ccccc12 [cinacalcet, Cinacalcet hydrochloride] |  |  |  |  |  | duration of PTH lowering (plasma PTH [6]): up to 6 hours; lowering of PTH (plasma PTH [6]): approximately 50% |
| CC(=O)N[C@H](CS)C(=O)N[C@H](CCCNC(=N)N)C(=O)N[C@H](CCCNC(=N)N)C(=O)N[C@H](C)C(=O)N[C@H](CCCNC(=N)N)C(=O)N[C@H](C)C(=O)N[C@H](CCCNC(=N)N)C(N)=O [SEQ ID NO: 25, Ac-crrarar-NH2] (Ac-[dC][dR][dR][dA][dR][dA][dR]-NH2) |  |  |  | 0.9 |  |  |
| Ac-c(C)rrarar-NH2 [SEQ ID NO: 28] | 0 | 16 | 0.7 | 0.9 |  |  |
| CC(=O)N[C@H](CS)C(=O)N[C@H](CCCNC(=N)N)C(=O)N[C@H](CCCNC(=N)N)C(=O)N[C@H](CCCNC(=N)N)C(=O)N[C@H](CCCNC(=N)N)C(=O)N[C@H](CCCNC(=N)N)C(N)=O [SEQ ID NO: 5, Ac-crrrrr-NH2] (Ac-[dC][dR][dR][dR][dR][dR]-NH2) |  |  |  |  | 2500 | mean PTH reduction at the 24 hour time point (plasma PTH [7]): 60% |
| CC(=O)N[C@H](CS)C(=O)N[C@H](C)C(=O)N[C@H](CCCNC(=N)N)C(=O)N[C@H](C)C(=O)N[C@H](CCCNC(=N)N)C(=O)N[C@H](CCCNC(=N)N)C(=O)N[C@H](CCCNC(=N)N)C(N)=O [SEQ ID NO: 15, Ac-cararrr-NH2] (Ac-[dC][dA][dR][dA][dR][dR][dR]-NH2) | 75 | 116 | 2.5 | 1.0 | 13000 | potency to activate the human CaSR in vitro [4]: significantly reduced potency in vitro in activating the CaSR; histamine response after IV bolus (plasma histamine [8]): lack of a histamine response |
| CC(=O)N[C@H](CS)C(=O)N[C@H](C)C(=O)N[C@H](CCCNC(=N)N)C(=O)N[C@H](CCCNC(=N)N)C(=O)N[C@H](CCCNC(=N)N)C(=O)N[C@H](CCCNC(=N)N)C(=O)N[C@H](C)C(N)=O [SEQ ID NO: 19, Ac-carrrra-NH2] (Ac-[dC][dA][dR][dR][dR][dR][dA]-NH2) | 29 | 72 | 1.3 | 0.9 |  |  |
